Results reported in ChEMBL document CHEMBL4706546, “Sulfoximines as Rising Stars in Modern Drug Discovery? Current Status and Perspective on an Emerging Functional Group in Medicinal Chemistry” (J Med Chem, 2020).
In brackets after ≈: the same amount, converted by molar mass. Each block holds one compound with its values, some of them ahead of it.

Assays:
physchem [1] = settings: in vivo, pH 6.5
A-375 = assay: cells; assay type: functional; settings: Homo sapiens, time 72 hrs
Description: Antiproliferative activity against human A375 cells assessed as cell proliferation at 25 uM after 72 hrs by alamarBlue cell proliferation assay relative to control

Beta-secretase 1 = Beta-secretase 1 (Homo sapiens, UniProt P56817); assay type: cell-based, HEK293
Chain of Beta-secretase 1 (P56817 whole entry): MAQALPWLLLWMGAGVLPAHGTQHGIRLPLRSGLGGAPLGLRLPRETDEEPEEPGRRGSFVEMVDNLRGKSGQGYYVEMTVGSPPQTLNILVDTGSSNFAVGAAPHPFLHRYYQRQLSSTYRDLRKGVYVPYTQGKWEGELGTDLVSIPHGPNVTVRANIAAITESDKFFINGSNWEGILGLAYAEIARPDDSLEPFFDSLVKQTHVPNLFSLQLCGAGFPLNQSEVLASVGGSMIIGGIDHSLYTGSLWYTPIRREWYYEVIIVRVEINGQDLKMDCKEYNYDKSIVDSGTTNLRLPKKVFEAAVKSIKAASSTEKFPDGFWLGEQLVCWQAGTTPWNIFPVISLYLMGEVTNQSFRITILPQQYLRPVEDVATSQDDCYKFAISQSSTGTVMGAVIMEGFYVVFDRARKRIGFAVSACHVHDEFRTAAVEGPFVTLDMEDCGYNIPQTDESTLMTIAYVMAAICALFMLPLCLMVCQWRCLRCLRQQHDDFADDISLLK
Description: Inhibition of BACE1 in HEK293 cells harboring APP assessed as reduction in amyloidbeta 40 level measured after 18 to 20 hrs by AlphaLISA Assay

Rattus norvegicus [2] = organism: Rattus norvegicus; assay: animal or person; assay type: functional; settings: iv, 0.5 min, time 30 sec
Description: Antiallergic activity in iv dosed rat model of IgE-mediated passive cutaneous anaphylaxis administered 30 secs prior to IgE challenge

in vitro [3] = settings: human, Caco-2
Description: Apparent permeability across apical to basolateral side in human Caco2 cells at 2 uM measured after 2 hrs by LC-MS/MS analysis

Dipeptidyl peptidase 4 = Dipeptidyl peptidase 4 (Homo sapiens, UniProt P27487)
Chain of Dipeptidyl peptidase 4 (P27487 whole entry): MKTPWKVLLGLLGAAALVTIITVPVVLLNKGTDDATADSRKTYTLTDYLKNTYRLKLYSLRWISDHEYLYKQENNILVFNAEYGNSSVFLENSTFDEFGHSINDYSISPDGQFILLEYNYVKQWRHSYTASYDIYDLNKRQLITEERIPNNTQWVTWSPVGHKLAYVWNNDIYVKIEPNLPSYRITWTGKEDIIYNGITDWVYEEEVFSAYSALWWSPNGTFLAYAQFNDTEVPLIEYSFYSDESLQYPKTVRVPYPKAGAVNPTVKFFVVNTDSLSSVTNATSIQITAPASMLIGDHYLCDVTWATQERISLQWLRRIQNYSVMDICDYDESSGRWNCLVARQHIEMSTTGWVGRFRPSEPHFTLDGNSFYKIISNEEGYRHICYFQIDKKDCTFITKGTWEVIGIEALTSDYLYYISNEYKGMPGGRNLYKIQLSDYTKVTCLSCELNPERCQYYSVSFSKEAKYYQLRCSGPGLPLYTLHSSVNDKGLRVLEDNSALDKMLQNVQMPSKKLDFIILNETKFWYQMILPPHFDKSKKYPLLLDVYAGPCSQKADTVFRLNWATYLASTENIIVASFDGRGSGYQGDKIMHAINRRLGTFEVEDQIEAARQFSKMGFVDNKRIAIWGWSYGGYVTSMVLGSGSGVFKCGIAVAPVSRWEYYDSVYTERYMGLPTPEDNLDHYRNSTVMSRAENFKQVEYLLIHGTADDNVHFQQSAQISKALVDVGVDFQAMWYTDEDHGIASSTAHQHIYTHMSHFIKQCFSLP
Description: Inhibition of human DPP4 expressed in baculovirus expression system using Gly-Pro-AMC as substrate by fluorometric assay

[4] = target: Vascular endothelial growth factor receptor 2 (Homo sapiens, UniProt P35968); assay type: cell-based, Sf9
Chain of Vascular endothelial growth factor receptor 2 (P35968 whole entry): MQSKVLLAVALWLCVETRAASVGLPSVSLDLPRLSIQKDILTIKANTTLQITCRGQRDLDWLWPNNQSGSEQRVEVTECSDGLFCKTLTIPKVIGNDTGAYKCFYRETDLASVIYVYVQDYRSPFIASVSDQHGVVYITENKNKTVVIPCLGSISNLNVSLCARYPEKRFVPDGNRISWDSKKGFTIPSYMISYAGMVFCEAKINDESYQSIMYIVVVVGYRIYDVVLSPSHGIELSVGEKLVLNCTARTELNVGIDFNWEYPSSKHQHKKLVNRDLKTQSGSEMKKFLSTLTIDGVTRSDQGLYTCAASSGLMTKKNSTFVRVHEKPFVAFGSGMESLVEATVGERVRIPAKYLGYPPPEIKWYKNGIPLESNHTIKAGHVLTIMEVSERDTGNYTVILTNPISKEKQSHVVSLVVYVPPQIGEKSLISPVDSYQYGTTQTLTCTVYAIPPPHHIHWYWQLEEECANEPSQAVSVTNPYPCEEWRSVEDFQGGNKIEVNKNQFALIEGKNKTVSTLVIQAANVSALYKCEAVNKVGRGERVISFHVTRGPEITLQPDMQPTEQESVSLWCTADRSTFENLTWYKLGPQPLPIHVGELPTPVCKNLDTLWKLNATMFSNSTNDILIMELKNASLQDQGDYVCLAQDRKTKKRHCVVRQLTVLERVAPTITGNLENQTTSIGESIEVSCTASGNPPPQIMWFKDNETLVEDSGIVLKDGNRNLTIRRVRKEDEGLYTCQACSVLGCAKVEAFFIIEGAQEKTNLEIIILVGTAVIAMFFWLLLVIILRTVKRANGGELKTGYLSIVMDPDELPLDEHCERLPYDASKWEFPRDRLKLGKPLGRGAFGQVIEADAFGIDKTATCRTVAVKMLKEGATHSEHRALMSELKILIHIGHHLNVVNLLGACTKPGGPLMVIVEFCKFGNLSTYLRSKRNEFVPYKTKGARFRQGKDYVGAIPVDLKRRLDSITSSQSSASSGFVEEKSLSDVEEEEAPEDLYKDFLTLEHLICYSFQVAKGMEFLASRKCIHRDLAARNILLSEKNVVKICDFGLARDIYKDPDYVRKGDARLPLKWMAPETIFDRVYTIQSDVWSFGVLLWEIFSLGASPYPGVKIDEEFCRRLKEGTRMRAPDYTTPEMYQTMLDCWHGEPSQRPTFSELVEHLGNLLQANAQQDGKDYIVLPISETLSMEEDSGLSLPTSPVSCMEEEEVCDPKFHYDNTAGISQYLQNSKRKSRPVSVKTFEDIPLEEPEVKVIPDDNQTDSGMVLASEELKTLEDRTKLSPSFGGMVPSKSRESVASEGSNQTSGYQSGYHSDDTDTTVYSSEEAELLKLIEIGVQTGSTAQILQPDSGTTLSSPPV

[5] = target: Cyclin-dependent kinase 1/cyclin B1 (Homo sapiens, UniProt P06493); assay type: cell-based, Sf9
Chain of Cyclin-dependent kinase 1/cyclin B1 (P06493 whole entry): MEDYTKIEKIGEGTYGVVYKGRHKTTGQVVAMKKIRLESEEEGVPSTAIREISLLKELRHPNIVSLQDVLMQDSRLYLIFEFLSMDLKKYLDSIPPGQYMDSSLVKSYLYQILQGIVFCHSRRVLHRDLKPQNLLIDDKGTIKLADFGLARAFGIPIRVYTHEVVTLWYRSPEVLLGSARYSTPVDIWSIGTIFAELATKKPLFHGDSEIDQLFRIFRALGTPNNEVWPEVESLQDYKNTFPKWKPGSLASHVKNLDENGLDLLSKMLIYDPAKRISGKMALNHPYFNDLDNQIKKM
Chain of Cyclin-dependent kinase 1/cyclin B1 (P14635 whole entry, further chain): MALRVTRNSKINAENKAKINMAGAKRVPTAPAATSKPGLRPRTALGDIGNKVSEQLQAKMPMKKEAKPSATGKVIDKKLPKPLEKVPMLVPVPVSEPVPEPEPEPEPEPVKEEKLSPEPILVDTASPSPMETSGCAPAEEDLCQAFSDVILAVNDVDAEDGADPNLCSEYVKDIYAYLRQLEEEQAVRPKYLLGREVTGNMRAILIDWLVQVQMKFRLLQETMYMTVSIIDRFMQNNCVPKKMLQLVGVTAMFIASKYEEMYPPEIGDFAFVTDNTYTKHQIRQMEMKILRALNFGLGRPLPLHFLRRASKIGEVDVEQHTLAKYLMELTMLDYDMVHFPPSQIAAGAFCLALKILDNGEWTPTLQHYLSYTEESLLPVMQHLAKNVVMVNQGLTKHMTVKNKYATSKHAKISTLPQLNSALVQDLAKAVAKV

MCF7 = assay: cells; assay type: functional, cell-based; settings: Homo sapiens, MCF7, 96 h
Description: Antiproliferative activity against human MCF7 cells incubated for 4 days by crystal violet staining based assay

Carbonic anhydrase 2 = Carbonic anhydrase 2 (Homo sapiens, UniProt P00918); assay type: ADME
Description: Inhibition of human carbonic anhydrase 2 using 4-nitrophenyl acetate as substrate by spectrophotometry

[6] = target: T1, Cyclin-dependent kinase 2/cyclin E1 (Homo sapiens, UniProt P24941); assay type: cell-based, Sf9
[7] = target: T2, 1,25-dihydroxyvitamin D(3) 24-hydroxylase, mitochondrial (Homo sapiens, UniProt Q07973); assay: biochemical; assay type: cell-based, V79
T2 sequence (Q07973 whole entry): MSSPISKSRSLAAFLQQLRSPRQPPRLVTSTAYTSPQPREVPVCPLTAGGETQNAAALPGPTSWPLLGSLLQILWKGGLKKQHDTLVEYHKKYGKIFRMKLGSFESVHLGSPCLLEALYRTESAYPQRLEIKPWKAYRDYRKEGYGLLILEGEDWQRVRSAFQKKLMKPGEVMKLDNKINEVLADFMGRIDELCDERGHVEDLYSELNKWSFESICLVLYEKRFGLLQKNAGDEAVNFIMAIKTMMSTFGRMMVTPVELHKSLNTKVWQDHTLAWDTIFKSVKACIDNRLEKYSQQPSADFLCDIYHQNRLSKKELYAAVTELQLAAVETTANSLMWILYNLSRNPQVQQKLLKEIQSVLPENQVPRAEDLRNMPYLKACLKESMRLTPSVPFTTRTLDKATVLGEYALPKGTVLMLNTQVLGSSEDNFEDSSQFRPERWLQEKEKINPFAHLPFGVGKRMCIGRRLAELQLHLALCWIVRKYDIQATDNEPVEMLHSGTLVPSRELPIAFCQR

Plasmodium falciparum [8] = assay: microbe, parasite or virus in culture; assay type: functional, organism-based; settings: 3D7, Erythrocyte, 48 h
Description: Antiplasmodial activity against Plasmodium falciparum 3D7 infected in human erythrocytes incubated for 48 hrs by lactate dehydrogenase colorimetric enzyme assay

Rattus norvegicus [9] = organism: Rattus norvegicus; assay: animal or person; assay type: functional; settings: po, 0.5 h, time 30 min
Description: Antiallergic activity in po dosed rat model of IgE-mediated passive cutaneous anaphylaxis administered 30 mins prior to IgE challenge

Estrogen receptor = target: T3, Estrogen receptor (Homo sapiens, UniProt P03372)
T3 sequence (P03372 whole entry): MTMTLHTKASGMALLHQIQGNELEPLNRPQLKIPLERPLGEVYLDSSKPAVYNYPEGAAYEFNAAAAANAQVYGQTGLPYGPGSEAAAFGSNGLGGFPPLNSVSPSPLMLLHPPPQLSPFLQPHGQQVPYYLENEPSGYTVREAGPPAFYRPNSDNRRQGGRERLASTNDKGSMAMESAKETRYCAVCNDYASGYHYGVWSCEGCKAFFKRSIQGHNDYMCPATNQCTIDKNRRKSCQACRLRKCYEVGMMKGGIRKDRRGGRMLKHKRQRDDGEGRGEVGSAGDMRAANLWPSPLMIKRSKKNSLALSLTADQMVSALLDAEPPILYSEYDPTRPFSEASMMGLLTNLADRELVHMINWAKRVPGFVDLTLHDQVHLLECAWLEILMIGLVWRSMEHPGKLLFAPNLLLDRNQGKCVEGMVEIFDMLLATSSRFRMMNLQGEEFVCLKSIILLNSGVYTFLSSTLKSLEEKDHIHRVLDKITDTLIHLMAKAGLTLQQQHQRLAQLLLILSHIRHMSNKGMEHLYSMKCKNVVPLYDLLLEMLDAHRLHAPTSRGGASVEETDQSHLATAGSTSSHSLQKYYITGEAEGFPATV
Description: Inhibition of wild type ESR1 (unknown origin) by transactivation assay

physchem [10] = settings: buffer
Description: Thermodynamic solubility in water by equilibrium shake-flask method

[11] = human, hepatocytes, 1 µM
Description: Clearance in human hepatocytes at 1 uM measured after 2 to 90 mins by HPLC-based LCMS/MS analysis

[12] = rat, hepatocytes, 1 µM
Description: Clearance in rat hepatocytes at 1 uM measured after 2 to 90 mins by HPLC-based LCMS/MS analysis

HeLa = assay: cells; assay type: functional, cell-based; settings: Homo sapiens, 96 h
Description: Antiproliferative activity against human HeLa cells incubated for 96 hrs by crystal violet staining assay

physchem [13] = settings: in vivo, pH 7.4
Plasmodium falciparum [14] = assay: microbe, parasite or virus in culture; assay type: functional, organism-based; settings: 3D7
Description: Antiplasmodial activity against Plasmodium falciparum 3D7

in vitro [15] = settings: human, Caco-2; remark: listed apart in the source
Description: Efflux ratio of apparent permeability across basolateral to apical side over apical to basolateral side in human Caco2 cells

[16] = target: cGMP-specific 3',5'-cyclic phosphodiesterase (Homo sapiens, UniProt O76074); assay type: cell-based; settings: platelet
Description: Inhibition of human platelets derived PDE5 using [3H]-cGMP as substrate incubated for 60 min by scintillation proximity assay

[17] = target: T4, Nuclear receptor ROR-gamma (Homo sapiens, UniProt P51449); assay type: cell-based, CD4+ve Th
T4 sequence (P51449 whole entry): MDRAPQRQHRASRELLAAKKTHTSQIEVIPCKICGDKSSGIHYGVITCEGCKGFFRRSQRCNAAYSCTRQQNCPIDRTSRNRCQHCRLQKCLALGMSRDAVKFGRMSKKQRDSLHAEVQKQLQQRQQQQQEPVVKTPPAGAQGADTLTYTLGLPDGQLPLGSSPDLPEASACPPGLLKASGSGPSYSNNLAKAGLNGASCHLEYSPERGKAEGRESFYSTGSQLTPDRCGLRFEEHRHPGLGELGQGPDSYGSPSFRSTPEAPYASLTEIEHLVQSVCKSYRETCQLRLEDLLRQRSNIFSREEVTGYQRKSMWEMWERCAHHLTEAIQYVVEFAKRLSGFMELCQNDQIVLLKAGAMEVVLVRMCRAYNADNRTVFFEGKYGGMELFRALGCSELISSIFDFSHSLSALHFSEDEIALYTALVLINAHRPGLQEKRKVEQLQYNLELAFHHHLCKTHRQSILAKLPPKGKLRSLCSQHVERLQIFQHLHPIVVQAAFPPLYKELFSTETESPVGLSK
Description: Inverse agonist activity at RORgammat in human CD4-positive T cells assessed as reduction in Th17 level incubated for 5 days by MSD electrochemiluminescent cytokine assay

[18] = target: T1, Cyclin-dependent kinase 2/cyclin E1; assay type: cell-based, Sf9; remark: listed apart in the source

solubility thermodynamic at 24 h (physchem [1]): 91 µg/mL (≈ 216 µM)
SMILES: COc1cc(F)ccc1-c1nc(Nc2cc(F)cc(CS(C)(=N)=N)c2)ncc1F

SMILES: O=C(NS(=O)(=O)c1ccc(Br)s1)c1ccc(Cl)cc1Cl
growth at 25 µM (A-375): 25%

IC50 (Beta-secretase 1): 0.59 nM
SMILES: CN=S1(=O)C[C@@](C)(c2cc(NC(=O)c3ncc(C#N)cc3C)ccc2F)N=C(N)N1CC(F)(F)F (single isomer, unassigned)

SMILES: CS(=N)(=O)c1ccc2oc3ccc(C(=O)O)cc3c(=O)c2c1 (configuration not stated)
ED50 (Rattus norvegicus [2]): 0.03 mg/kg

Papp A→B at 2 h, 2 µM (in vitro [3]): 206 ×10⁻⁶ cm/s
SMILES: CCCc1nc(C)c2c(=O)[nH]c(-c3cc(S(=O)(=O)N4CCN(CC)CC4)ccc3OCC)nn12

IC50 (Dipeptidyl peptidase 4): 8.8 nM
SMILES: N[C@H]1C[C@@H](N2Cc3cn(S(=O)(=O)NC(=O)c4ccccc4)nc3C2)CO[C@@H]1c1cc(F)ccc1F

SMILES: CCS(=N)(=O)c1ccc(Nc2ncc(Br)c(O[C@H](C)[C@@H](C)O)n2)cc1 (some centres not stated)
IC50 [4]: 32 nM | IC50 [5]: 2 nM | IC50 (MCF7): 44 nM | IC50 (Carbonic anhydrase 2): > 10000 nM | IC50 [6]: 3 nM

IC50 [7]: 27 nM
SMILES: C=C1/C(=C\C=C2/CCC[C@]3(C)C([C@H](C)/C=C/S(=O)(=O)C(C)(C)C)=CC[C@@H]23)C[C@@H](O)C[C@@H]1O

IC50 (Beta-secretase 1): 2 nM
SMILES: C[C@@]1(c2cc(NC(=O)c3cnc(C#N)cn3)ccc2F)CS2(=O)=NCC(F)(F)CN2C(N)=N1 (single isomer, unassigned)

SMILES: CN=S1(=O)C[C@@H]2[C@@H](OCc3ccccc3)[C@H](OCc3ccccc3)[C@@H](COCc3ccccc3)O[C@@H]2c2cc(C(C)(C)C)ccc21 (some centres not stated)
IC50 (Plasmodium falciparum [8]): 900 nM

SMILES: CCCCCCc1cc(S(C)(=N)=O)cc2c(=O)c3cc(C(=O)O)ccc3oc12 (configuration not stated) [SUDEXANOX]
ED50 (Rattus norvegicus [9]): 0.19 mg/kg

IC50 (Estrogen receptor): 1.8 nM
SMILES: C[C@]12CC[C@@H]3c4ccc(O)cc4C[C@@H](CCCCCCCCC[S@@](=N)(=O)CCCC(F)(F)C(F)(F)F)[C@H]3[C@@H]1CC[C@@H]2O

IC50 [4]: 34 nM | IC50 (Carbonic anhydrase 2): 514 nM | solubility thermodynamic (physchem [10]): 8 µg/mL
SMILES: C[C@H](CO)Nc1nc(Nc2ccc(S(N)(=O)=O)cc2)ncc1Br.Cl

IC50 (Dipeptidyl peptidase 4): 18 nM
SMILES: CS(=O)(=NS(=O)(=O)c1ccccc1)n1cc2c(n1)CN([C@H]1CO[C@H](c3cc(F)ccc3F)[C@@H](N)C1)C2 (some centres not stated)

CLH [11]: 1 mL/min/kg | CLH [12]: 1 mL/min/kg
SMILES: N=S1(=O)CCC(NC(=O)c2n[nH]cc2NC(=O)c2c(Cl)cccc2Cl)CC1 (configuration not stated)

SMILES: COc1cc(F)ccc1-c1ncnc(Nc2cccc(C[S@](C)(=N)=O)c2)n1 [ATUVECICLIB]
IC50 (HeLa): 1500 nM | solubility thermodynamic at 24 h (physchem [13]): 479 µg/mL (≈ 1240 µM)

SMILES: CCCCCCCCCCCS(=O)(=NCc1cn(Cc2ccccc2)nn1)c1ccccc1 (configuration not stated)
IC50 (Plasmodium falciparum [14]): 6600 nM

IC50 (Beta-secretase 1): 0.99 nM
SMILES: Cc1cc(C#N)cnc1C(=O)Nc1ccc(F)c([C@]2(C)CS(=O)(=NCC(F)(F)F)N(C)C(N)=N2)c1 (single isomer, unassigned)

IC50 (Carbonic anhydrase 2): > 10000 nM
SMILES: C[C@@H](O)[C@@H](C)Oc1nc(Nc2ccc(S(C)(=O)=O)cc2)ncc1C(F)(F)F

SMILES: N=S(=O)(NC(=O)c1ccc(Cl)cc1Cl)c1ccc(Br)s1 (configuration not stated)
growth at 25 µM (A-375): 40%

efflux ratio (in vitro [15]): 288 | IC50 [16]: 0.025 nM | Papp A→B at 2 h, 2 µM (in vitro [3]): 0.71 ×10⁻⁶ cm/s
SMILES: CCCc1nc(C)c2c(=O)[nH]c(-c3cc(S(=O)(=O)N4CCS(=N)(=O)CC4)ccc3OCC)nn12

SMILES: CC(C)(C)c1ccc2c(c1)[C@H]1O[C@H](COCc3ccccc3)[C@@H](OCc3ccccc3)[C@H](OCc3ccccc3)[C@H]1C[S@@]2(=N)=O
IC50 (Plasmodium falciparum [8]): 800 nM

IC50 (Beta-secretase 1): 28 nM
SMILES: N#Cc1ccc(C(=O)Nc2ccc(F)c([C@]3(CF)CS4(=O)=NCCCCN4C(N)=N3)c2)nc1 (single isomer, unassigned)

solubility thermodynamic at 24 h (physchem [13]): 11 µg/mL (≈ 28.2 µM)
SMILES: COc1cc(F)ccc1-c1ncnc(Nc2cccc(CS(N)(=O)=O)c2)n1

IC50 [17]: 3.2 nM
SMILES: CCc1ccc(N(CC(C)C)S(=O)(=O)c2ccc(OCC3CCOCC3)c(CO)c2)cc1 [GSK2981278]

SMILES: O=C([O-])c1cc(=O)c2c(OCC(O)COc3cccc4oc(C(=O)[O-])cc(=O)c34)cccc2o1.[Na+].[Na+] [CROMOLYN SODIUM]
ED50 (Rattus norvegicus [2]): 1.21 mg/kg

IC50 [18]: 2920 nM
SMILES: COc1cc(F)ccc1-c1cc(Nc2cc(C[S@@](C)(=N)=O)ccn2)ncc1F

IC50 [4]: 163 nM | IC50 (Carbonic anhydrase 2): > 10000 nM | solubility thermodynamic (physchem [10]): 182 µg/mL (≈ 423 µM)
SMILES: C[C@@H](O)[C@@H](C)Oc1nc(Nc2ccc([S@](=N)(=O)C3CC3)cc2)ncc1C(F)(F)F

CLH [11]: 4 mL/min/kg | CLH [12]: 29.3 mL/min/kg
SMILES: O=C(NC1CCNCC1)c1n[nH]cc1NC(=O)c1c(Cl)cccc1Cl [AT-7519]
